These results are taken from paper PMC6789487, “Iminosugars: Effects of Stereochemistry, Ring Size, and N-Substituents on Glucosidase Activities” (Pharmaceuticals, 2019).

In assay [1] the target is T1, α-glucosidase (from Saccharomyces cerevisiae) (Saccharomyces cerevisiae, UniProt P53341). Nature of the assay: Yeast α-glucosidase inhibition, p-nitrophenyl α-D-glucopyranoside substrate, 96-well plate. The assay is classed as biochemical. On the procedure:
(§1) Biological assays: Yeast α-glucosidase (EC 3.2.1.20) and almond β-glucosidase (EC 3.2.1.21) activity was assessed using a 96-well plate assay. Assays contained 20 mM NaOAc at pH 6.8 (α-glucosidase) and pH 6.2 (β-glucosidase), 10 mM PIPES (piperazine-N,N′-bis(2-ethanesulfonic acid), 0.1 mM EDTA, α-glucosidase (5 μg/mL), β-glucosidase (6 μg/mL), and inhibitor (0.1–2 mM). Enzyme and inhibitor were equilibrated at 37 °C for 30 min. The reaction was initiated by the addition of p-nitrophenyl α-D-glucopyranoside (200 μM) or p-nitrophenyl β-D-glucopyranoside (200 μM), and then it was quenched with 100 μL of sodium carbonate 3.0 M after 25 min incubation at 37 °C. Assays were repeated in duplicate and data averaged.

Assay [2] addresses almond β-glucosidase (EC 3.2.1.21). The assay can be described thus: Almond β-glucosidase inhibition, p-nitrophenyl β-D-glucopyranoside substrate, 96-well plate. The assay is classed as biochemical. The conditions noted are these: β-Glucosidase from almonds; NI: no inhibition. On the procedure:
To broaden the scope of the analysis, β-glucosidase (almond) activity of the same set of compounds was conducted using the corresponding p-nitrophenyl β-D-glucopyranoside.
as §1

The target in assay [3] is T1, α-glucosidase (from Saccharomyces cerevisiae). Nature of the assay: Yeast α-glucosidase inhibition, p-nitrophenyl α-D-glucopyranoside substrate, 96-well plate. The assay is classed as biochemical. The conditions noted are these: tested concentration 15–2000 µM.
Assay [4] relates to yeast α-glucosidase. The conditions noted are these: at 1 mM; cited from earlier work.
Assay [5] concerns β-glucosidase. The conditions noted are these: cited from earlier work; for % β-glucosidase inhibition: at 1 mM.
Assay [6] concerns Bacillus stearothermophilus α-glucosidase. Also noted: method as in PMID 9113331. The conditions noted are these: cited from earlier work; for % α-glucosidase inhibition: tested at 1 mM in Bacillus stearothermophilus.
Setting [7] is: NI: no inhibition, read-out: Inhibition (µM) α-Glucosidase (IC50).
Setting [8] is: read-out: Inhibition (µM) α-Glucosidase (IC50), NI: no inhibition.

Several values for one entry are separate records, joined by “and”; a condition that tells them apart may be missing. Equal entries are not always repeated. Where two headings read alike, the source gives them in different places.

T1 sequence (P53341 whole entry): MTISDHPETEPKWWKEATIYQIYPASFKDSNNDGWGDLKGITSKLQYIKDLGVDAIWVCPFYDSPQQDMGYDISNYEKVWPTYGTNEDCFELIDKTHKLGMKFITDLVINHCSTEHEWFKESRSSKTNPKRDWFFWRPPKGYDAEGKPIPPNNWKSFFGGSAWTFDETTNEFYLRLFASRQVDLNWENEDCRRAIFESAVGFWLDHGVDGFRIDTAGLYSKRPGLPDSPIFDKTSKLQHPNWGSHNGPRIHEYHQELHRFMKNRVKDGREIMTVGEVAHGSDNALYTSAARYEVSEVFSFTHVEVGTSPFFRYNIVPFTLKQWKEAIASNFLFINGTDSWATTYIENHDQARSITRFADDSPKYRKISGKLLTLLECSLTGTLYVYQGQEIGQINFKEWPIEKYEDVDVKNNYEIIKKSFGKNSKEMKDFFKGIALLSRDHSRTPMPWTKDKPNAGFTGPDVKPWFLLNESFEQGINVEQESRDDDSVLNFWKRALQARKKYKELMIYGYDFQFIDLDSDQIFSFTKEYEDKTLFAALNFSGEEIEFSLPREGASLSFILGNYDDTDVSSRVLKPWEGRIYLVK

Turning to `C#CCN1C[C@@H](O)[C@@H](O)[C@H](O)[C@@H]1CO` [26a, N-Propynyl-1,5-dideoxy-1,5-imino-L-gulitol], the IC50 (commonly the concentration needed to halve the response being measured) in assay [1] (setting [7]) was greater than 2000 µM; in assay [2] it was 1716 ± 12.8 µM.

As for `C#CCN1C[C@@H](O)[C@@H](O)[C@H](O)[C@H](O)C1` [26b, N-Propynyl-1,6-dideoxy-1,6-imino-D-mannitol], the IC50 in assay [1] (setting [7]) and in assay [2] was greater than 2000 µM throughout.

In the case of `CCCCN1C[C@@H](O)[C@@H](O)[C@H](O)[C@@H]1CO` [27a, N-Butyl-1,5-dideoxy-1,5-imino-L-gulitol], the half-inhibitory concentration (IC50) in assay [1] (setting [8]) is greater than 2000 µM.

Turning to `CCCCN1C[C@@H](O)[C@@H](O)[C@H](O)[C@H](O)C1` [27b, N-Butyl-1,6-dideoxy-1,6-imino-D-mannitol], in assay [2], the IC50 is 184 µM and 185 µM.

With `OCCN1C[C@@H](O)[C@@H](O)[C@H](O)[C@@H]1CO` [28a, N-Hydroxyethyl-1,5-dideoxy-1,5-imino-L-gulitol], the IC50 in assay [1] (setting [8]) and in assay [2] was greater than 2000 µM each time.

On to `OCCN1C[C@@H](O)[C@@H](O)[C@H](O)[C@H](O)C1` [28b, N-Hydroxyethyl-1,6-imino-D-mannitol], for which the IC50 in assay [1] (setting [7]) and in assay [2] was greater than 2000 µM in each case.

On to `OC[C@H]1[C@@H](O)[C@H](O)[C@H](O)CN1CCc1ccccc1` [29a, N-Phenethyl-1,5-dideoxy-1,5-imino-L-gulitol], for which the IC50 in assay [1] (setting [7]) and in assay [2] was greater than 2000 µM throughout.

For `O[C@H]1[C@H](O)[C@H](O)CN(CCc2ccccc2)C[C@H]1O` [29b, N-Phenethyl-1,6-dideoxy-1,6-imino-D-mannitol], the IC50 in assay [1] (setting [7]) and in assay [2] was greater than 2000 µM each time.

`C#CCN1C[C@H](O)[C@@H](O)[C@H](O)[C@H]1CO` [39a, N-Propynyl-1,5-dideoxy-1,5-imino-D-glucitol]: the values for the IC50 in assay [1] (setting [7]) and in assay [2] were greater than 2000 µM and 636 ± 8.5 µM, respectively. Also, the “yeast α-glucosidase inhibition (in words)” value in assay [3] was “weak or no α-glucosidase inhibition”.

Consider `C#CCN1C[C@H](O)[C@@H](O)[C@H](O)[C@@H](O)C1` [39b, N-Propynyl-1,6-dideoxy-1,6-imino-L-iditol], for which the IC50 in assay [1] (setting [7]) is greater than 2000 µM; in assay [2], 3440 ± 70.6 µM. Also, in assay [3], the “yeast α-glucosidase inhibition (in words)” value was “weak or no α-glucosidase inhibition”.

For `CCCCN1C[C@H](O)[C@@H](O)[C@H](O)[C@H]1CO` [40a, N-Butyl-1,5-dideoxy-1,5-imino-D-glucitol, reference compound], the IC50 in assay [1] (setting [8]) is greater than 2000 µM. In addition, the “yeast α-glucosidase inhibition (in words)” value in assay [3] was “weak or no α-glucosidase inhibition”.

Consider `CCCCN1C[C@H](O)[C@@H](O)[C@H](O)[C@@H](O)C1` [40b, N-Butyl-1,6-dideoxy-1,6-imino-L-iditol], for which the IC50 in assay [1] (setting [7]) was greater than 2000 µM; in assay [2], 80 ± 4.9 µM. Moreover, in assay [3], the “yeast α-glucosidase inhibition (in words)” value is on record as “weak or no α-glucosidase inhibition”. Moreover, in assay [4], the “% inhibition, α-glucosidase” value is reported as 14%.

Take `OCCN1C[C@H](O)[C@@H](O)[C@H](O)[C@H]1CO` [41a, N-Hydroxyethyl-1,5-dideoxy-1,5-imino-D-glucitol, reference compound]: the IC50 in assay [1] (Inhibition (µM) α-Glucosidase (IC50), NI: no inhibition) is 41 µM and 41.3 µM; in assay [2], 4 ± 1.5 µM.

For the molecule `OCCN1C[C@H](O)[C@@H](O)[C@H](O)[C@@H](O)C1` [41b, N-Hydroxyethyl-1,6-dideoxy-1,6-imino-L-iditol], the IC50 is 138 µM and 139 µM in assay [1] (setting [7]); 4 ± 1.4 µM in assay [2].

As to `O[C@H]1[C@H](O)[C@H](O)CNC[C@H]1O` [D-manno-azepane, 1,6-dideoxy-1,6-imino-D-mannitol], the “% β-glucosidase inhibition” value in assay [5] is reported as 1%. Besides, in assay [6], the “% α-glucosidase inhibition” value is given as 55%.

In the case of `OC[C@H]1NC[C@H](O)[C@@H](O)[C@@H]1O` [DNJ, 1-deoxynojirimycin, reference compound], the Ki (in general, a measure of affinity in units of concentration, obtained from inhibition or displacement) was […] in assay [5] and 0.44 µM in assay [6] (Bacillus stearothermophilus α-glucosidase). The concentration for half-maximal inhibition (IC50) in assay [2] is 33 µM and 33.1 µM.

Turning to `OC[C@@H]1NC[C@@H](O)[C@@H](O)[C@@H]1O` [nonsubstituted L-gulo-piperidine, 1-deoxy-L-gulo-nojirimycin], the “% β-glucosidase inhibition” value in assay [5] is on record as […]. Besides, the “% α-glucosidase inhibition” value in assay [6] is recorded as 30%.
